Results from US20180237751A1, “METHOD FOR GENERATING BETA CELLS” (THE TRUSTEES OF COLUMBIA UNIVERSITY IN THE CITY OF NEW YORK, priority 2011, published 2018).

How the values were obtained:
Type in all cases: cell-based, human
control beta cells [1] = test: UPR, insulin and proinsulin content and ER morphology in control beta cells
Protocol: (§1) Human ES or iPS cells were dissociated by Dispase (3-5 mins) and Accutase (5 mins, Sigma). Cells were suspended in human ES medium containing 10 μM Y27632, a ROCK inhibitor, and filtered through a 70 μm cell strainer. Then cells were seeded at a density of 800,000 cells/well in 12-well plates. After 1 or 2 days, when cells reached 80-90% confluence, differentiation was started. On Day 1: cells were briefly washed once with RPMI medium, then were treated with Activin A (100 ng/ml), Wnt3A (25 ng/ml) and 0.075 mM EGTA in RPMI medium. On day 2-3: cells were treated with Activin A (100 ng/ml) and 0.2% FBS in RPMI medium. On day 4-5: cells were treated with FGF10 (50 ng/ml), KAAD-cyclopamine (0.25 μM) and 2% FBS in RPMI medium. On day 6-8: cells were treated with FGF10 (50 ng/ml), KAAD-cyclopamine ([…] (2 μM) and LDN-193189 (250 nM), B27 in DMEM medium. On day 9-10: cells were treated with exendin-4 (50 ng/ml), SB431542 (2 μM) and B27 in CMRL medium. On day 11-12, cells were treated with T4 (thyroid hormone, 0.02 nM) and B27 in CMRL medium. After day 12, cells were incubated in CMRL medium with B27. Cells were analyzed between day 14 and day 16.
Wolfram and control iPSCs or fibroblasts were incubated with indicated dosages of thapsigargin (TG) or tunicamycin (TM) (Both were from Sigma) for 6 hours after an overnight starvation. 1 mM Sodium 4-phenylbutyrate (4PBA) (EMD Chemicals Inc.) was administrated one hour prior to and through TG or TM treatment. Cells were harvested and subjected to RNA and protein analysis. In vitro differentiated beta cells were treated with 10 nM TG for 12 hours, or 0.5 μg/ml TM for 6 hours with or without 1 mM 4PBA treatment one hour prior to and through TG or TM treatment. […] GRP78 protein level was determined by western blot using mouse-anti GRP78 antibody (Santa Cruz, sc-166490).
(§2) To determine Insulin or proinsulin content within the cell, differentiated cells were collected and lysed by M-PER protein extraction reagent (Thermo Scientific). Proinsulin and insulin contents were measured by using human proinsulin and insulin ELISA kits (Mercodia). Quantification of positively stained cells was analyzed using Celigo Cytometer system (Cyntellect), and flow cytometry analysis. To normalize insulin content to beta cell number, cultures were dissociated to single cells, and divided into three fractions: 20% of cells for cell number quantification, 40% for RNA analysis and 40% for ELISA assay to determine insulin content.
Differentiated beta cells were treated with or without 10 nM TG for 12 hours, and then fixed in 2.5% glutaraldehyde in 0.1 M Sorenson's buffer (pH 7.2) for one hour. […] The number of granules was determined using ImageJ software.

control iPS cells = test: Unfolded protein response (UPR) analysis, control iPS cells; conditions: 10 nM TG, 6 hour
Protocol: Wolfram and control iPSCs or fibroblasts were incubated with indicated dosages of thapsigargin (TG) or tunicamycin (TM) (Both were from Sigma) for 6 hours after an overnight starvation. 1 mM Sodium 4-phenylbutyrate (4PBA) (EMD Chemicals Inc.) was administrated one hour prior to and through TG or TM treatment. Cells were harvested and subjected to RNA and protein analysis. In vitro differentiated beta cells were treated with 10 nM TG for 12 hours, or 0.5 μg/ml TM for 6 hours with or without 1 mM 4PBA treatment one hour prior to and through TG or TM treatment. For long-term 4PBA treatment, cells were incubated with 1 mM 4PBA starting on day 9 of differentiation, when cells reached pancreatic endoderm stage, and maintained until day 15. Then cells were subjected to insulin secretion, RNA and protein analysis. RNA was isolated using RNAeasy plus kit (Qiagen). cDNA was generated by using RT kit (Promega). Primers for PCR analysis were as follows: XBP-1 for gel-imaging (Lee, Won et al.) forward 5′ […] 3′ (SEQ ID NO:1), reverse 5′ […] 3′ (SEQ ID NO:2); sXBP-1 for QPCR (Merquiol, Uzi et al. 2011) forward 5′ CTGAGTCCGCAGCAGGTG 3′(SEQ ID NO:3), reverse 5′ […] 3′ (SEQ ID NO:4); GRP78 forward 5′ […] 3′(SEQ ID NO:5), reverse 5′ […] 3′ (SEQ ID NO:6); Insulin forward 5′ […] […] GRP78 protein level was determined by western blot using mouse-anti GRP78 antibody (Santa Cruz, sc-166490).

Wolfram iPS cells = test: Unfolded protein response (UPR) analysis, Wolfram iPS cells and fibroblasts
Protocol: (§3) Wolfram and control iPSCs or fibroblasts were incubated with indicated dosages of thapsigargin (TG) or tunicamycin (TM) (Both were from Sigma) for 6 hours after an overnight starvation. 1 mM Sodium 4-phenylbutyrate (4PBA) (EMD Chemicals Inc.) was administrated one hour prior to and through TG or TM treatment. Cells were harvested and subjected to RNA and protein analysis. In vitro differentiated beta cells were treated with 10 nM TG for 12 hours, or 0.5 μg/ml TM for 6 hours with or without 1 mM 4PBA treatment one hour prior to and through TG or TM treatment. For long-term 4PBA treatment, cells were incubated with 1 mM 4PBA starting on day 9 of differentiation, when cells reached pancreatic endoderm stage, and maintained until day 15. Then cells were subjected to insulin secretion, RNA and protein analysis. RNA was isolated using RNAeasy plus kit (Qiagen). cDNA was generated by using RT kit (Promega). Primers for PCR analysis were as follows: XBP-1 for gel-imaging (Lee, Won et al.) forward 5′ […] 3′ (SEQ ID NO:1), reverse 5′ […] 3′ (SEQ ID NO:2); sXBP-1 for QPCR (Merquiol, Uzi et al. 2011) forward 5′ CTGAGTCCGCAGCAGGTG 3′(SEQ ID NO:3), reverse 5′ […] 3′ (SEQ ID NO:4); GRP78 forward 5′ […] 3′(SEQ ID NO:5), reverse 5′ […] 3′ (SEQ ID NO:6); Insulin forward 5′ […] 3′(SEQ ID NO:7), reverse 5′ CAATGCCACGCTTCTGC 3′(SEQ ID NO:8). GRP78 protein level was determined by western blot using mouse-anti GRP78 antibody (Santa Cruz, sc-166490).

control beta cells [2] = test: In vitro insulin and glucagon secretion assay, control beta cells
Protocol: as §3
(§4) Cells were cultured in 12-well dishes. After 14 days of differentiation, cells were washed for 1 hour in CMRL medium, then incubated in 300 μl CMRL medium containing 5.6 mM glucose for 1 hour and the medium was collected. After that, 300 μl CMRL medium containing 16.9 mM glucose, or 15 mM arginine, or 30 mM potassium, or 1 mM DBcAMP+16.9 mM glucose was used to treat cells for 1 hour and then the medium was collected. Human C-peptide concentration in the medium was measured by ultra-sensitive human C-peptide ELISA kit according to manufacturer's instructions (Mercodia). Glucagon levels in medium were measured by using Glucagon ELISA kit (ALPCO Diagnostics).

Wolfram beta cells [3] = test: In vitro insulin and glucagon secretion assay, Wolfram beta cells
Protocol: as §3, §4

Wolfram beta cells [4] = test: UPR, insulin and proinsulin content and ER morphology in Wolfram beta cells
Protocol: as §1, §3, §2
Differentiated beta cells were treated with or without 10 nM TG for 12 hours, and then fixed in 2.5% glutaraldehyde in 0.1 M Sorenson's buffer (pH 7.2) for one hour. Samples were processed and imaged by Dignostic Service, Department of Pathology and Cell Biology, Columbia University. Secretory granule structure and endoplasmic reticulum (ER) morphology were visually recognized. The number of granules was determined using ImageJ software.

[5] = test system: GCK mutant iPS-derived beta-like cells; test: Insulin (C-peptide) secretion assay in vitro, GCK mutant beta-like cells; conditions: 1 hour, identical to control cells
Protocol: Typically, cells were cultured in 12-well dishes. After 12 days of differentiation, cells were washed for 1 hour in CMRL medium. Cells were then incubated in 300 μl CMRL medium containing 5.6 mM glucose for 1 hour and the medium was collected. Subsequently, 300 μl CMRL medium containing 16.9 mM glucose or other secretagogues was used to treat cells for 1 hour, following which the medium was collected. For in vivo tests, mice were deprived of food overnight with ad libitium access to water. After 12-14 hours of fasting, capillary blood glucose concentrations were determined by tail vein bleed using an AlphaTRACK glucometer (Abbott). Venous blood samples were collected via the submandibular vein. Intraperitoneal glucose was then administered (1 mg/g body weight) and ½ hour later blood samples were obtained via the submandibular vein. Blood samples were kept at room temperature for 2 hours and serum was obtained by centrifuging blood samples at 4000 rpm for 15 min. C-peptide concentrations in medium or mouse serum were measure using an ultrasensitive human C-peptide ELISA kit according to manufacturer's instructions (Mercodia). […]
Typically, cells were cultured in 12-well dishes. […] After 12-14 hours of fasting, capillary blood glucose concentrations were determined by tail bleed using an AlphaTRACK glucometer (Abbott). […]

[6] = control cells, arginine stimulation, TG treatment
[7] = Wolfram beta cells, TG 10 nM, 12 hours

C/C=C(/C)C(=O)O[C@H]1C(C)=C2[C@H]([C@@H]1OC(=O)CCCCCCC)[C@@](C)(OC(C)=O)C[C@H](OC(=O)CCC)[C@@]1(O)[C@H]2OC(=O)[C@@]1(C)O [TG, thapsigargin]
proinsulin to insulin ratio (control beta cells [1]; control beta cells challenged with TG, ~0.47 without TG): 0.51
ER morphology (TEM) (control beta cells [1]; control cells, 12 hours of 10 nM TG): remained unaffected
production of insulin (control beta cells [1]; control cells, TG 10 nM, 12 hours): unaffected
increase of GRP78 mRNA (control iPS cells): 2 fold
increase of GRP78 mRNA (Wolfram iPS cells; Wolfram cells, 10 nM TG, 6 hour): 4 fold
GRP78 mRNA level (Wolfram iPS cells; stem cells, increasing concentration of TG, 6 hours): dose-dependent increase
increase of insulin output in response to 16.9 mM glucose (control beta cells [2]; TG treated control beta cells (10 nM, 12 hour)): 1.6 fold
reduction of stimulated glucagon secretion (control beta cells [2]; [6]): 28%
reduction of stimulated insulin secretion (control beta cells [2]; [6]): −3%
insulin secretion in response to 16.9 mM glucose (Wolfram beta cells [3]; TG treated Wolfram cells (10 nM, 12 hour)): failed to increase insulin secretion
reduction of stimulated glucagon secretion (Wolfram beta cells [3]; WFS1 cells, arginine stimulation, TG treatment): 24%
reduction of stimulated insulin secretion (Wolfram beta cells [3]; WFS1 mutant cells, arginine stimulation, TG treatment): 43%
response to DBcAMP (C-peptide secretion) (Wolfram beta cells [3]; Wolfram beta cells treated with TG, 2.6 without TG): 1.2 fold
insulin-secretion in response to potassium (Wolfram beta cells [3]; Wolfram beta cells treated with TG, 3.9 without TG): 2.2 fold
fold increase of C-peptide in the medium in response to arginine (Wolfram beta cells [3]; Wolfram beta cells treated with TG, 4.0 without TG): 2.3 fold
proinsulin to insulin ratio (Wolfram beta cells [4]; Wolfram beta cells challenged with TG, ~0.55 without TG): 0.73
ER morphology (TEM) (Wolfram beta cells [4]; Wolfram beta cells, 12 hours of 10 nM TG): greatly dilated
reduction of insulin production at the mRNA level (Wolfram beta cells [4]; [7]): 46%
reduction of insulin production at the protein level (Wolfram beta cells [4]; [7]): 31%

COC(=O)C1=C(C)NC(C)=C([N+](=O)[O-])C1c1ccccc1C(F)(F)F (stereo not drawn) [Bay K8644]
increase in C-peptide release ([5]; GCK^G299R/+ and GCK^G299R/hygro cells): 3-5 fold
increase in C-peptide release ([5]; GCK^G299R/+ cells): 5 fold
